Measured values reported in patent US20060069132A1, “Azolecarboxamide herbicides” (priority 2004, published 2006).

Experiments:
barnyardgrass [1] = experiment: Test B flooded paddy test; format: in vivo, Echinochloa crus-galli; conditions: 1000 g ai/ha, scale 0 to 100 (0 no effect, 100 complete control)
In short: (§1)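 Read-out: visual comparison with controls, scored 0 to 100, where 100 means complete control and 0 no effect. Formulated chemicals were applied postemergence to plants 2–18 cm tall (1- to 4-leaf), or to flooded-paddy plants at the 2-leaf stage, then held 13 to 15 days under glass.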

wild oat = experiment: Test B postemergence herbicide test; format: in vivo, Avena fatua; conditions: postemergence
In short: (§2)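 Greenhouse test; postemergence application to plants at 1–4 leaves (2–18 cm); paddy species at 2 leaves; evaluated visually vs controls at 13–15 days; scale 0–100 (100 = complete control).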

wheat = experiment: Test B postemergence herbicide test; format: in vivo, Triticum aestivum; parameters: key to Wheat plant response rating: 0 = no effect, 100 = complete control; conditions: postemergence
In short: as §2

giant foxtail = experiment: Test B pre-/postemergence herbicide test; format: in vivo, Setaria faberi; conditions: for Foxtail, Giant plant response rating: postemergence
In short: (§3)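 Evaluation is visual, comparing treated with control plants on a scale where 0 means no effect and 100 means full control. Treatments were preemergence, or postemergence on seedlings 2–18 cm tall, and held 13–15 days in the greenhouse.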

morningglory = experiment: Test B pre-/postemergence herbicide test; format: in vivo, Ipomoea coccinea; conditions: for Morningglory plant response rating: postemergence
In short: (§4)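 Pre: seeds sown, then sprayed. Post: 1–4-leaf plants (2–18 cm) sprayed at the same time. Paddy: flooded, treated at 2-leaf stage. Formulation: non-phytotoxic solvent with surfactant. Greenhouse 13–15 days; visual 0–100 score relative to controls.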

barnyardgrass [2] = experiment: Test B pre-/postemergence herbicide test; format: in vivo, Echinochloa crus-galli; conditions: for Barnyardgrass plant response rating: postemergence, scale 0 (no effect) to 100 (complete control)
In short: as §4

rice [3] = experiment: Test B flooded paddy test; format: in vivo, Oryza sativa; conditions: 1000 g ai/ha, scale 0 to 100 (0 no effect, 100 complete control)
In short: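 Each value is a visual 0–100 response rating taken against controls 13 to 15 days after treatment in the greenhouse. Plants received formulated chemical postemergence at the 1- to 4-leaf stage or, in flooded paddy, at the 2-leaf stage.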

barnyardgrass [4] = experiment: Test C flooded paddy test; format: in vivo, Echinochloa crus-galli
In short: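 Plants were grown to the 1- to 4-leaf stage (2–18 cm) and then treated postemergence, or grown to the 2-leaf stage for the flooded paddy test. They were held in a greenhouse for 12 to 14 days and then scored by eye against controls, where 0 is no effect and 100 is complete control.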

rice [5] = experiment: Test C flooded paddy test; format: in vivo, Oryza sativa
In short: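 Injury scored visually against controls on a 0 (no effect) to 100 (complete control) scale, 12 to 14 days after treatment in greenhouse. Flooded paddy plants treated at 2-leaf stage; postemergence plants at 1- to 4-leaf stage, 2 to 18 cm tall.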

rice [6] = experiment: Test B pre-/postemergence herbicide test; format: in vivo, Oryza sativa; conditions: 0 = no effect, 100 = complete control, preemergence
In short: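 Plants compared with untreated controls 13–15 days post-treatment and given a visual 0–100 injury score. Applications: preemergence to seeds; postemergence at 1- to 4-leaf (2–18 cm); paddy species flooded, 2-leaf stage. Vehicle non-phytotoxic, surfactant included.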

velvetleaf = experiment: Test B pre-/postemergence herbicide test; format: in vivo, Abutilon theophrasti; conditions: for Velvetleaf plant response rating: postemergence
In short: as §3

ducksalad [7] = experiment: Test B flooded paddy test; format: in vivo, Heteranthera limosa; conditions: 1000 g ai/ha, scale 0 to 100 (0 no effect, 100 complete control)
In short: as §1

blackgrass = experiment: Test B postemergence herbicide test; format: in vivo, Alopecurus myosuroides; conditions: postemergence, visual rating, scale 0 (no effect) to 100 (complete control)
In short: as §1

cocklebur = experiment: Test B pre-/postemergence herbicide test; format: in vivo, Xanthium strumarium; conditions: for Cocklebur plant response rating: postemergence, scale 0 (no effect) to 100 (complete control)
In short: as §4

[8] = test system: smallflower umbrella sedge; experiment: Test C flooded paddy test; format: in vivo, Cyperus difformis
corn = experiment: Test B pre-/postemergence herbicide test; format: in vivo, Zea mays; conditions: for Corn plant response rating: postemergence
In short: as §3

ducksalad [9] = experiment: Test C flooded paddy test; format: in vivo, Heteranthera limosa
large crabgrass = experiment: Test B pre-/postemergence herbicide test; format: in vivo, Digitaria sanguinalis; conditions: for Crabgrass, Large plant response rating: postemergence
In short: as §3

[10] = test system: small flower umbrella sedge; experiment: Test B flooded paddy test; format: in vivo, Cyperus difformis; conditions: 1000 g ai/ha, scale 0 to 100 (0 no effect, 100 complete control)
In short: as §1

pigweed = experiment: Test B pre-/postemergence herbicide test; format: in vivo, Amaranthus retroflexus; conditions: for Pigweed plant response rating: postemergence
In short: as §3

lambsquarters = experiment: Test B pre-/postemergence herbicide test; format: in vivo, Chenopodium album; conditions: for Lambsquarters plant response rating: postemergence
In short: as §3

Surinam grass = experiment: Test B pre-/postemergence herbicide test; format: in vivo, Urochloa decumbens; conditions: for Surinam Grass plant response rating: postemergence
In short: as §3

[11] = 125 g ai/ha, visual rating, scale 0 (no effect) to 100 (complete control)
[12] = 500 g ai/ha, scale 0 to 100, 0 is no effect, 100 is complete control
[13] = 125 g ai/ha, 0 = no effect, 100 = complete control, preemergence
[14] = 500 g ai/ha, visual rating, 0 = no effect, 100 = complete control, preemergence
[15] = 125 g ai/ha, scale 0 to 100 (0 no effect, 100 complete control)
[16] = 250 g ai/ha, scale of 0 to 100, 0 is no effect, 100 is complete control
[17] = 500 g ai/ha, visual rating after 12 to 14 days, scale 0 to 100 (0 no effect, 100 complete control)

CCn1nc(C(C)(C)C)cc1C(=O)Nc1ccnc(C(=O)N(C)C)c1 [Compound 256]
65: Plant response rating, Ducksalad (ducksalad [9]; [17])
60: Plant response rating, Foxtail, Giant (giant foxtail; [14]) | Barnyardgrass plant response rating (barnyardgrass [2]; 500 g ai/ha, visual rating) | Sedge, Umbrella plant response rating [8, 16] | Plant response rating, Sedge, Umbrella [8, 17] | Pigweed plant response rating (pigweed; [12]) | Lambsquarters plant response rating (lambsquarters; [12]) | Surinam Grass plant response rating (0 to 100 scale) (Surinam grass; [13]) | Plant response rating, Surinam Grass (Surinam grass; [14])
30: Barnyardgrass plant response rating (barnyardgrass [1]) | Oat, Wild plant response rating (wild oat; [12]) | Wheat plant response rating (wheat; [12]) | Rice plant response rating (0 to 100 scale) (rice [6]; 125 g ai/ha) | Velvetleaf plant response rating (velvetleaf; [12]) | Pigweed plant response rating (pigweed; [11]) | Lambsquarters plant response rating (lambsquarters; [11])
10: Oat, Wild plant response rating (wild oat; [11]) | Wheat plant response rating (wheat; [11]) | Morningglory plant response rating (morningglory; [12]) | Velvetleaf plant response rating (velvetleaf; [11]) | Corn plant response rating (corn; [12]) | Crabgrass, Large plant response rating (0 to 100 scale) (large crabgrass; [13])
20: Blackgrass plant response rating (blackgrass; 500 g ai/ha) | Crabgrass, Large plant response rating (large crabgrass; [12]) | Surinam Grass plant response rating (Surinam grass; [12])
70: Plant response rating, Barnyardgrass (barnyardgrass [2]; [14]) | Sedge, Umbrella plant response rating [10]
50: Foxtail, Giant plant response rating (giant foxtail; [12]) | Rice plant response rating (rice [3])
100: Plant response rating, Crabgrass, Large (large crabgrass; [14]) | Plant response rating, Pigweed (pigweed; [14]) | Plant response rating, Lambsquarters (lambsquarters; [14])
90: Ducksalad plant response rating (ducksalad [7])
80: Plant response rating, Rice (rice [6]; 500 g ai/ha, visual rating) | Plant response rating, Velvetleaf (velvetleaf; [14])
15: Plant response rating, Rice (rice [5]; [17]) | Ducksalad plant response rating (ducksalad [9]; [16])
0: Foxtail, Giant plant response rating (0 to 100 scale) (giant foxtail; [13]) | Foxtail, Giant plant response rating (giant foxtail; [11]) | Morningglory plant response rating (0 to 100 scale) (morningglory; [13]) | Plant response rating, Morningglory (morningglory; [14]) | Morningglory plant response rating (morningglory; [11]) | Barnyardgrass plant response rating (0 to 100 scale) (barnyardgrass [2]; [13]) | Barnyardgrass plant response rating (barnyardgrass [2]; 125 g ai/ha, visual rating) | Barnyardgrass plant response rating (barnyardgrass [4]; 62 g ai/ha, scale 0 to 100 (0 no effect, 100 complete control)) | Barnyardgrass plant response rating (barnyardgrass [4]; [15]) | Barnyardgrass plant response rating (barnyardgrass [4]; [16]) | Plant response rating, Barnyardgrass (barnyardgrass [4]; [17]) | Rice plant response rating (rice [5]; 62 g ai/ha, scale 0 to 100) | Rice plant response rating (rice [5]; [15]) | Rice plant response rating (rice [5]; [16]) | Velvetleaf plant response rating (0 to 100 scale) (velvetleaf; [13]) | Blackgrass plant response rating (blackgrass; 125 g ai/ha) | Cocklebur plant response rating (0 to 100 scale) (cocklebur; [13]) | Plant response rating, Cocklebur (cocklebur; [14]) | Cocklebur plant response rating (cocklebur; 125 g ai/ha, visual rating) | Cocklebur plant response rating (cocklebur; 500 g ai/ha, visual rating) | Sedge, Umbrella plant response rating ([8]; 62 g ai/ha, scale 0 to 100) | Sedge, Umbrella plant response rating [8, 15] | Corn plant response rating (0 to 100 scale) (corn; [13]) | Plant response rating, Corn (corn; [14]) | Corn plant response rating (corn; [11]) | Ducksalad plant response rating (ducksalad [9]; 62 g ai/ha, scale 0 to 100) | Ducksalad plant response rating (ducksalad [9]; [15]) | Crabgrass, Large plant response rating (large crabgrass; [11]) | Surinam Grass plant response rating (Surinam grass; [11])
